The source made the active and inactive calls. The rule behind the calls is not given here.
What was measured:
[1] = system: B3Z; experiment: Inhibition of scavenger receptor A (unknown origin) in mouse B3Z cells assessed as anti-CD3/CD28 antibody-induced T cell activation by measuring transcription of il2 gene after 5 hrs by beta-galactosidase assay; format: cell-based
[2] = system: T-cell; experiment: Inhibition of OVA257-264 peptide-induced T cell activation in SRA-deficient C57BL/6 mouse BMDC assessed as IL2 production at 10 to 30 uM after 56 hrs by ELISA; format: functional, cell-based
[3] = target: T1, Macrophage scavenger receptor types I and II (Mus musculus) (UniProt P30204); experiment: Inhibition of scavenger receptor A in wild type C57BL/6 mouse BMDC assessed as OVA257-264 peptide-induced T cell activation by measuring IL2 production at 30 uM after 56 hrs by ELISA
T1 sequence (whole entry): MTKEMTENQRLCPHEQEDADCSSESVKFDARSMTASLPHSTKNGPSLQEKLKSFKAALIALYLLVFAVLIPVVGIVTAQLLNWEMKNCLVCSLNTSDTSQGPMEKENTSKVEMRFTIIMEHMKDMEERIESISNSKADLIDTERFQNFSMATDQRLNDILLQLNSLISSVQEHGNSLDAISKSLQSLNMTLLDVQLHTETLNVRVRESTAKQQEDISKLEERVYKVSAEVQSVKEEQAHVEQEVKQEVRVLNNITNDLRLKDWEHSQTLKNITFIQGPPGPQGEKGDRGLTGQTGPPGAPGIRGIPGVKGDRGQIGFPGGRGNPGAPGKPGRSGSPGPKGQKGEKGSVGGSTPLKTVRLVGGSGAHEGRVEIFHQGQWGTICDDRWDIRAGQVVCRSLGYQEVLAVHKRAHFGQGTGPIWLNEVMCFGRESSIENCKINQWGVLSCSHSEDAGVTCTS

[4] = target: T1, Macrophage scavenger receptor types I and II (Mus musculus); experiment: Inhibition of scavenger receptor A in wild type C57BL/6 mouse BMDC assessed as OVA257-264 peptide-induced T cell activation by measuring IL2 production at 10 uM after 56 hrs by ELISA
[5] = target: T1, Macrophage scavenger receptor types I and II (Mus musculus); experiment: Inhibition of scavenger receptor A in mouse DC1.2 cells assessed as decrease in poly(I:C)-induced activation of STAT1 pretreated for 2 hrs before poly(I:C) stimulation measured after 3 hrs by immunoblotting; format: cell-based
[6] = target: T1, Macrophage scavenger receptor types I and II (Mus musculus); experiment: Inhibition of scavenger receptor A in mouse DC1.2 cells assessed as decrease in poly(I:C)-induced activation of IRF3 pretreated for 2 hrs before poly(I:C) stimulation measured after 3 hrs by immunoblotting; format: cell-based
[7] = target: T1, Macrophage scavenger receptor types I and II (Mus musculus); experiment: Inhibition of scavenger receptor A in wild type C57BL/6 mouse BMDC assessed as gp100 (25 to 33) peptide-induced T cell activation by measuring IL2 production at 20 uM after 56 hrs by ELISA

inhibition [3]	inhibition [4]	inhibition [5]	inhibition [6]	inhibition [7]	Compound	inhibition [1]	inhibition [2]
Active	Active	Dose-dependent effect	Dose-dependent effect	Active	O=C(O)c1cc(O)c2c(c1)C(=O)c1cccc(O)c1C2=O	Dose-dependent effect	inactive
				Active	O=C(O)c1cc(O)c2c(c1)[C@@H]([C@H]1c3cc(C(=O)O)cc(O)c3C(=O)c3c(O[C@@H]4O[C@H](CO)[C@@H](O)[C@H](O)[C@H]4O)cccc31)c1cccc(O[C@@H]3O[C@H](CO)[C@@H](O)[C@H](O)[C@H]3O)c1C2=O		

— ChEMBL document CHEMBL3600331, “Small molecule inhibits activity of scavenger receptor A: Lead identification and preliminary studies” (Bioorg Med Chem Lett, 2015)
